In test [1] the test system is Aiolos. As to the kind of experiment: IMiD activity: Aiolos degradation in PBMCs by flow cytometry. Type of test: cell-based. The note with it: human PBMCs, 24 hours; for Dmax: maximum percent Aiolos degradation in the assay; for DC50: compound concentration degrading 50% of Aiolos. The procedure:
In addition, Compounds 1-24 were assayed for IMiD activity. Frozen human peripheral blood mononuclear cells (PBMCs) were thawed and treated with DMSO or compound for 24 hours and then fixed and permeabilized using a Foxp3/Transcription Factor Fixation/Permeabilization Kit (eBioscience, 00-5523). Cells were stained with fluorophore-conjugated antibodies against CD20 (Biolegend 302330), CD3 (BD Pharmingen 552127), and Aiolos (Biolegend 371106). An additional set of DMSO-treated PBMCs was stained for CD20, CD3, and an AlexaFluor 647-conjugated mouse IgG1 isotype control antibody (Biolegend 400136). Stained cells were run on an Attune NxT Acoustic Focusing Flow Cytometer (Thermo-Fisher A29004), and data was analyzed using FlowJo (v10.5.3) and GraphPad Prism (v7.00) software. Single lymphocytes were gated for B cells (CD20+CD3-) and T cells (CD3+CD20-), and the geometric mean fluorescence intensity (MFI) of Aiolos was calculated for each population. The MFI of the isotype control was calculated for each population and used to quantify background staining. Percent Aiolos degradation was calculated for each compound-treated sample using the following equation: […]
DC50 is the compound concentration degrading 50% of Aiolos. Dmax is the maximum percent Aiolos degradation in the assay.

The subject of test [2] is Experimental autoimmune encephalomyelitis (EAE). As to the kind of experiment: Experimental autoimmune encephalomyelitis (EAE) model. The class given is in vivo, C57BL/6 mice. Particulars: EAE, 30 mg/kg, spinal cords collected on day 22. The procedure:
EAE was induced in C57BL/6 mice by immunization with an emulsion of MOG1-125 in complete Freund's adjuvant (CFA), followed by administration of pertussis toxin in PBS, first on the day of immunization (Day 0) and then again the following day (Day 1).
Dosing of all mice started on Day −1 and continued through Day 22. Fingolimod (FTY720, Gilenya) is the a commonly used positive control in this model.
Statistical significance was determined between vehicle control and treated groups based on the end clinical scores using Wilcoxon's non-parametric test.
Statistical analysis: Demyelination (anti-MBP) with Wilcoxon's non-parametric test; inflammatory foci or apoptosis with two-tailed Student's t-test.

The values below come from patent publication US20240336595A1, “BIFUNCTIONAL COMPOUNDS FOR DEGRADING BTK WITH DIMINISHED IMID ACTIVITY” (NURIX THERAPEUTICS, INC., priority 2021, published 2024).

By Dmax is commonly meant the greatest extent of degradation seen. Low readings indicate a partial loss of target, high ones a fuller loss of target. In general, DC50 refers to the midpoint of the concentration-degradation curve. Read a high DC50 as degradation only at high concentration.

On to `CN1CCN([C@@H]2CCCN(c3cnc(C(N)=O)c(Nc4ccc(C5CCN(CC6CCN(c7cnc(C(=O)NC8CCC(=O)NC8=O)nc7)CC6)CC5)cc4)n3)C2)C1=O` (mixture of isomers) [Compound 3, 5-(4-((4-(4-((3-carbamoyl-6-((R)-3-(3-methyl-2-oxoimidazolidin-1-yl)piperidin-1-yl)pyrazin-2-yl)amino)phenyl)piperidin-1-yl)methyl)piperidin-1-yl)-N—((RS)-2,6-dioxopiperidin-3-yl)pyrimidine-2-carboxamide], for which, in test [1], the Dmax was 3.2%.

Regarding `NC(=O)c1ncc(N2CCCCC2)nc1Nc1ccc2c(c1)CCN(CC1CCN(c3ccc(C(=O)NC4CCC(=O)NC4=O)nc3)CC1)C2` (racemic) [Compound 4, rac-3-[(2-{[1-(6-{[(3R)-2,6-dioxopiperidin-3-yl]carbamoyl}pyridin-3-yl)piperidin-4-yl]methyl}-3,4-dihydro-1H-isoquinolin-6-yl)amino]-5-(piperidin-1-yl)pyrazine-2-carboxamide], in test [1], it took 344 nM to reach half-maximal degradation (DC50) and the Dmax worked out at 28.3%.

In test [1], `CN1CCN([C@@H]2CCCN(c3cnc(C(N)=O)c(Nc4ccc(C5CCN(CC6CCN(c7ccc(C(=O)NC8CCC(=O)NC8=O)cc7)CC6)CC5)cc4)n3)C2)C1=O` (mixture of isomers) [Compound 5, 3-((4-(1-((1-(4-(((RS)-2,6-dioxopiperidin-3-yl)carbamoyl)phenyl)piperidin-4-yl)methyl)piperidin-4-yl)phenyl)amino)-5-((R)-3-(3-methyl-2-oxoimidazolidin-1-yl)piperidin-1-yl)pyrazine-2-carboxamide] gave a DC50 of 468 nM and a Dmax of 10.1%.

`CN1CCN([C@@H]2CCCN(c3cnc(C(N)=O)c(Nc4ccc(C5CCN(C[C@@H]6CCN(c7ccc8c(c7)n(C)c(=O)n8C7CCC(=O)NC7=O)C6)CC5)cc4)n3)C2)C1=O` (mixture of isomers) [Compound 8, 3-((4-(1 (((3 S)-1-(1-(2,6-dioxopiperidin-3-yl)-3-methyl-2-oxo-2,3-dihydro-1H-benzo[d]imidazol-5-yl)pyrrolidin-3-yl)methyl)piperidin-4-yl)phenyl)amino)-5-((R)-3-(3-methyl-2-oxoimidazolidin-1-yl)piperidin-1-yl)pyrazine-2-carboxamide] registered a Dmax in test [1] of 1.0%.

For the compound `CN1CCN([C@@H]2CCCN(c3cnc(C(N)=O)c(Nc4ccc(C5CCN(C[C@H]6CC[C@@H](Nc7cccc8c7C(=O)N([C@@H]7CCC(=O)NC7=O)C8=O)CC6)CC5)cc4)n3)C2)C1=O` (racemic) [Compound 9, 5-[(3R)-3-(3-methyl-2-oxoimidazolidin-1-yl)piperidin-1-yl]-3-{[4-(1-{[(1 s,4s)-4-{[2-(2,6-dioxopiperidin-3-yl)-1,3-dioxoisoindol-4-yl]amino}cyclohexyl]methyl}piperidin-4-yl)phenyl]amino}pyrazine-2-carboxamide], in test [1], the half-maximal degradation concentration (DC50) was 96.6 nM and the Dmax came out at 30.8%.

In test [1], `CN1CCN([C@@H]2CCCN(c3cnc(C(N)=O)c(Nc4ccc(C5CCN(CC6CCN(c7ccc(C(=O)N[C@@H]8CCC(=O)NC8=O)nc7)CC6)CC5)cc4)n3)C2)C1=O` [Compound 2] registered a 50% degradation concentration (DC50) of 596 nM and a Dmax of 17.9%.

In test [1], `Cn1c(=O)n([C@@H]2CCC(=O)NC2=O)c2ccc(N3CC[C@H](CN4CCC(c5ccc(Nc6nc(N7CCCCC7)cnc6C(N)=O)cc5)CC4)C3)cc21` [Compound 6] showed a Dmax of 1.1%.

In test [1], `Cn1c(=O)n([C@@H]2CCC(=O)NC2=O)c2ccc(N3CC[C@@H](CN4CCC(c5ccc(Nc6nc(N7CCCCC7)cnc6C(N)=O)cc5)CC4)C3)cc21` [Compound 7] came in with a maximal degradation (Dmax) of 4.6%.

As to `NC(=O)c1ncc(N2CCCCC2)nc1Nc1ccc(C2CCN(CC3CCN(c4ccc(CC5CCC(=O)NC5=O)cn4)CC3)CC2)cc1` (centres unmarked) [Compound 10], the Dmax in test [1] is 3.2%.

`CN1CCN([C@@H]2CCCN(c3cnc(C(N)=O)c(Nc4ccc(C5CCN(CC6CCN(c7ncc(C(=O)NC8CCC(=O)NC8=O)o7)CC6)CC5)cc4)n3)C2)C1=O` (some centres unmarked) [Compound 11] registered a maximal degradation (Dmax) in test [1] of 1.9%.

The compound `CN1CCN([C@@H]2CCCN(c3cnc(C(N)=O)c(Nc4ccc(C5CCN(CC6CCN(c7ccc8c(c7)n(C)c(=O)n8C7CCC(=O)NC7=O)CC6)CC5)cc4)n3)C2)C1=O` (some centres unmarked) [Compound 12] registered a Dmax in test [1] of 5.3%.

In test [1], `CN1CCN([C@@H]2CCCN(c3cnc(C(N)=O)c(Nc4ccc(C5CCN(CC6CCN(c7ccc(OC8CCC(=O)NC8=O)cn7)CC6)CC5)cc4)n3)C2)C1=O` (some centres unmarked) [Compound 13] gave a DC50 of 2.89 nM and a Dmax of 4.9%.

With `NC(=O)c1ncc(N2CCCCC2)nc1Nc1ccc(N2CCC3(CCN(Cc4ccc5c(c4)C(=O)N(C4CCC(=O)NC4=O)C5=O)CC3)CC2)cc1` (centres unmarked) [Compound 14], in test [1], the DC50 was determined as 37.6 nM and the Dmax stood at 30.4%.

Regarding `CN1CCN([C@H]2CCCN(c3cnc(C(N)=O)c(Nc4ccc(C5CCN(CC6CCN(c7ccc(C(=O)NC8CCC(=O)NC8=O)nc7)CC6)CC5)cc4)n3)C2)C1=O` (some centres unmarked) [Compound 15], in test [1], it took 345 nM to reach half-maximal degradation (DC50) and the greatest degradation seen (Dmax) is given as 27.4%.

Consider `CN1CCN([C@@H]2CCCN(c3cnc(C(N)=O)c(Nc4ccc(C5(C)CCN(C6CN(Cc7ccc8c(c7)C(=O)N(C7CCC(=O)NC7=O)C8=O)C6)CC5)cc4)n3)C2)C1=O` (some centres unmarked) [Compound 16], for which the Dmax in test [1] is 23.6%.

Compound `CN1CCN([C@H]2CCCN(c3cnc(C(N)=O)c(Nc4ccc(N5CCN(CC#Cc6cccc7c6CN(C6CCC(=O)NC6=O)C7=O)CC5)cc4)n3)C2)C1=O` (some centres unmarked) [Compound 17] came in with a Dmax in test [1] of 15.1%.

In test [1], `CN1CCN([C@@H]2CCCN(c3cnc(C(N)=O)c(Nc4ccc(N5CCC6(CCCN(c7ccc8c(c7)C(=O)N(C7CCC(=O)NC7=O)C8=O)C6)CC5)cc4)n3)C2)C1=O` (some centres unmarked) [Compound 18] registered a DC50 of 2650 nM and a maximal degradation (Dmax) of 28.2%.

On to `CN1CCN([C@@H]2CCCN(c3cnc(C(N)=O)c(Nc4ccc(N5CCN(C(=O)CCOCCCc6ccc7c(c6)C(=O)N(C6CCC(=O)NC6=O)C7)CC5)cc4)n3)C2)C1=O` (some centres unmarked) [Compound 19], for which, in test [1], the Dmax stood at 9.1%.

On to `C=CC(=O)N1CCC[C@@H](n2nc(-c3ccc(Oc4ccccc4)cc3)c3c(N)ncnc32)C1` [Ibrutinib, reference compound], for which, in test [2], the “Apoptotic cells/section +/− SD” value is given as 0.4 +/− 0.7 and the “Inflammatory foci/section +/− SD” value is given as 1.0 +/− 1.4. In addition, the “Demyelination score +/− SD” value in test [2] (anti-MBP) is 0.4 +/− 0.6.
